Source: patent US12509446B2, “FYN and VEGFR2 kinase inhibitors” (ROTTAPHARM BIOTECH S.R.L., priority 2019, dated 2025)

How the values were obtained:
Fyn = Fyn (Homo sapiens (Human), UniProt P06241); experiment: Z′-LYTE in vitro Fyn kinase activity assay; assay type: biochemical; settings: ATP 50 μM; read-out: FYN KINASE INHIBITION IC50
Summary of the method: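 Z′-LYTE FRET format with full-length active Fyn in 50 mM Hepes pH 7.5, 10 mM MgCl2, 1 mM EGTA, 0.01% Brij-35, 1% DMSO final; 60 minutes at 25° C. Percent phosphorylation from 0% and 100% phosphorylation controls; IC50 by non-linear curve fitting of percent inhibition.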

[1] = tested on: rat primary articular chondrocytes; experiment: Toxicity analysis (MTT) in rat primary chondrocytes

Fyn, sequence (P06241 whole entry): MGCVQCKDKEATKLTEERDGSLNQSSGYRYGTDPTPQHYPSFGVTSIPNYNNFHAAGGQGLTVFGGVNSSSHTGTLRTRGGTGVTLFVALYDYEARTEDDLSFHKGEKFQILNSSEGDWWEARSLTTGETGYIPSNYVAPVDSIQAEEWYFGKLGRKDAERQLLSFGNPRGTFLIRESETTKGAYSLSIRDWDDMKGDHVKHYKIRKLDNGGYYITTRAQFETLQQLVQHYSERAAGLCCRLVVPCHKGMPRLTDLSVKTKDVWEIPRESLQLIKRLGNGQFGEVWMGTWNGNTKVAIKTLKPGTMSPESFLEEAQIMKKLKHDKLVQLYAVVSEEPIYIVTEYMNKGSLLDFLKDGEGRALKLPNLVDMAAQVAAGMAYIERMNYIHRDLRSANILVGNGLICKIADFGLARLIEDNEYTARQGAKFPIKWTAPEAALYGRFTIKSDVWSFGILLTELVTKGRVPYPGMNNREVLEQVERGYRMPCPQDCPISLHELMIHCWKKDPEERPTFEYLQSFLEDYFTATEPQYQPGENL

**Q.** Which results are given for `Cc1ccc(NC(=O)c2cccc(C(F)(F)F)c2)cc1CCc1cc(Nc2cnccn2)[nH]n1` [Compound 3, N-(4-methyl-3-(2-(5-(pyrazin-2-ylamino)-1H-pyrazol-3-yl)ethyl)phenyl)-3-(trifluoromethyl)benzamide]?
**A.** IC50 (Fyn): 9 nM; First toxic concentration at 48 h in rat primary chondrocytes ([1]; 48 h): 3 µM; First toxic concentration at 24 h ([1]; rat primary chondrocytes, 24 h): 10 µM
